The values that follow are results of earlier work, collected in PMC6530907 (Biochemistry, 2019).

The series addresses YbtE. The following applies: cited from earlier work.

For the compound `Nc1ncnc2c1ncn2[C@@H]1O[C@H](COS(=O)(=O)NC(=O)c2ccccc2O)[C@@H](O)[C@H]1O` [compound 1, 5´-O-[N-salicylsulfamoyl]adenosine], the Ki is 0.7 nM.

For orientation: Ki means the equilibrium dissociation constant of an inhibitor or competing ligand from its target.
